Assays:
Type in all cases: physicochemical
[1] = Residual ratio of fudostein (HPLC) after preservation at 70° C. for seven days
Procedure: (§1) Aqueous solutions containing 8 g of fudostein were adjusted to pH 2-7 using an appropriate amount of phosphoric acid or sodium hydroxide as shown in Table 1. Purified water was added to make the total amount of each solution 100 ml, thereby obtaining liquid fudostein preparations with different pHs. The liquid preparations were preserved at 70° C. for seven days to examine the residual ratio of fudostein in the solutions, color change, and sedimentation. The residual ratio of fudostein was calculated from the amount of fudostein determined by quantitative analysis using HPLC. The color change and sedimentation were evaluated by naked eye observation and rated according to the following standard.
(§2) Purified water was added to make the total amount of each solution 100 ml, thereby obtaining liquid fudostein preparations. […]
(§3) Aqueous solutions containing 8 g of fudostein and D-sorbitol in the amounts shown in Table 5 were adjusted to pH 3.5 by adding phosphoric acid. Purified water was added to make the total amount of each solution 100 ml, thereby obtaining liquid fudostein preparations.

[2] = Sedimentation by naked eye observation after preservation at 70° C. for seven days
Procedure: as §1, with “standard. […] (Results) Aqueous solutions containing 8 g of fudostein and D-sorbitol in the amounts shown in Table 5 were adjusted to pH 3.5 by adding phosphoric acid. Purified water was added to make the total amount of each solution 100 ml, thereby obtaining liquid fudostein preparations.” for “standard.”

[3] = Color change by naked eye observation after preservation at 70° C. for seven days; note: key: −: There was no color change in the liquid preparation; ±: There was slight color change in the liquid preparation; +: There was color change in the liquid preparation; ++: There was remarkable color change in the liquid preparation
Procedure: as §1
Evaluation standard for color change:
as §2, §3

[4] = Overall stability of liquid fudostein preparations after preservation at 70° C. for seven days; details: 8 g fudostein/100 ml
Procedure: as §1, with “standard. Aqueous solutions containing 8 g of fudostein and D-sorbitol in the amounts shown in Table 5 were adjusted to pH 3.5 by adding phosphoric acid. Purified water was added to make the total amount of each solution 100 ml, thereby obtaining liquid fudostein preparations.” for “standard.”

[5] = 8 g fudostein/100 ml aqueous solution, pH 2.0, 70° C. for seven days
[6] = 8 g fudostein/100 ml aqueous solution, pH 2.5, 70° C. for seven days
[7] = 8 g fudostein/100 ml aqueous solution, pH 3.0, 70° C. for seven days
[8] = 8 g fudostein/100 ml aqueous solution, pH 3.5, 70° C. for seven days
[9] = 8 g fudostein/100 ml aqueous solution, pH 4.0, 70° C. for seven days
[10] = 8 g fudostein/100 ml aqueous solution, pH 5.0, 70° C. for seven days
[11] = 8 g fudostein/100 ml aqueous solution, pH 6.0, 70° C. for seven days
[12] = 8 g fudostein/100 ml aqueous solution, pH 7.0, 70° C. for seven days
[13] = 8 g fudostein/100 ml, D-sorbitol 0%, pH 3.5, 70° C. for seven days
[14] = 8 g fudostein/100 ml, D-sorbitol 10%, pH 3.5, 70° C. for seven days
[15] = 8 g fudostein/100 ml, D-sorbitol 20%, pH 3.5, 70° C. for seven days
[16] = 8 g fudostein/100 ml, D-sorbitol 30%, pH 3.5, 70° C. for seven days
[17] = 8 g fudostein/100 ml, D-sorbitol 40%, pH 3.5, 70° C. for seven days
[18] = 8 g fudostein/100 ml, D-sorbitol 50%, pH 3.5, 70° C. for seven days

For N[C@@H](CSCCCO)C(=O)O [fudostein, S-(3-hydroxypropyl)-L-cysteine], the “Analytical value Residual ratio (%)” value [1, 5] was 99.9%, the “Analytical value Residual ratio (%)” value [1, 6] was 100.0% and the “Analytical value Residual ratio (%)” value [1, 7] was 100.7%. For the same compound, the “Analytical value Residual ratio (%)” value [1, 8] was 100.3%, the “Analytical value Residual ratio (%)” value [1, 9] was 101.1% and the “Analytical value Residual ratio (%)” value [1, 10] was 100.1%. The “Analytical value Residual ratio (%)” value [1, 11] was 100.4%, the “Analytical value Residual ratio (%)” value [1, 12] was 99.4% and the “Analytical value Residual ratio (%)” value ([1]; 8 g fudostein/100 ml, D-sorbitol 0%, pH 3.5 (phosphoric acid), 70° C. for seven days) was 99.6%. The “Analytical value Residual ratio (%)” value ([1]; 8 g fudostein/100 ml, D-sorbitol 10%, pH 3.5 (phosphoric acid), 70° C. for seven days) was 99.4%, the “Analytical value Residual ratio (%)” value ([1]; 8 g fudostein/100 ml, D-sorbitol 20%, pH 3.5 (phosphoric acid), 70° C. for seven days) was 99.0% and the “Analytical value Residual ratio (%)” value ([1]; 8 g fudostein/100 ml, D-sorbitol 30%, pH 3.5 (phosphoric acid), 70° C. for seven days) was 99.3%. The “Analytical value Residual ratio (%)” value ([1]; 8 g fudostein/100 ml, D-sorbitol 40%, pH 3.5 (phosphoric acid), 70° C. for seven days) was 99.9%, the “Analytical value Residual ratio (%)” value ([1]; 8 g fudostein/100 ml, D-sorbitol 50%, pH 3.5 (phosphoric acid), 70° C. for seven days) was 100.4% and the Sedimentation [2, 5] was “± (Slight sedimentation was observed.)”. For the same compound, the Sedimentation [2, 6] was “± (Slight sedimentation was observed.)”, the Sedimentation [2, 7] was “−” and the Sedimentation [2, 8] was “−”. For the same compound, the Sedimentation [2, 9] was “−”, the Sedimentation [2, 10] was “−” and the Sedimentation [2, 11] was “−”. The Sedimentation [2, 12] was “−”, the Sedimentation [2, 13] was “−” and the Sedimentation [2, 14] was “−”. For the same compound, the Sedimentation [2, 15] was “−”, the Sedimentation [2, 16] was “−” and the Sedimentation [2, 17] was “+ (Sedimentation was observed.)”. The Sedimentation [2, 18] was “+ (Sedimentation was observed.)”, the Color change [3, 5] was “−” and the Color change [3, 6] was “−”. For the same compound, the Color change [3, 7] was “−”, the Color change [3, 8] was “−” and the Color change [3, 9] was “−”. For the same compound, the Color change [3, 10] was “±”, the Color change [3, 11] was “+” and the Color change [3, 12] was “++”. For the same compound, the Color change [3, 13] was “−”, the Color change [3, 14] was “−” and the Color change [3, 15] was “−”. The Color change [3, 16] was “−”, the Color change [3, 17] was “±” and the Color change [3, 18] was “+”. The “pH at which the liquid fudostein preparation remains stable” value ([4]; 70° C. for seven days) was no more than 5.0 and the “sugar alcohol concentration at which liquid fudostein preparations are stable” value ([4]; D-sorbitol, pH 3.5, 70° C. for seven days) was no more than 40%.

From patent US7592372B2, “Liquid drug preparations” (Hisamitsu Pharmaceutical Co., Inc., priority 2001, dated 2009)
